Molecules are shown by their SMILES. “And” between values parts separate entries of the source, which are not always exact repeats. Equal entries are not always repeated.

The subject of series [1] is gram-negative and gram-positive bacteria (e.g., Lactobacillus). The settings on record: cited from earlier work.
Series [2] has as its system yeast (e.g., Saccharomyces). The settings on record: cited from earlier work.
Series [3] can be described thus: Oil Stability Index (OSI), antioxidant activity in COFA, AOCS Cd 12b-92. Particulars: 110° C.
Method: Antioxidants were added on a weight percent basis to quantities of Corn Oil Fatty Acids (CAS No. 8001-30-7) and allowed to dissolve. […] COFA samples containing undissolved antioxidants were thoroughly mixed before withdrawing samples for analysis, to ensure the samples contained the specified weight percent of antioxidant.
Samples were run and the induction periods were determined according to AOCS method Cd 12b-92. All samples were tested at 110° C.

For `Cc1cc(C(C)(C)C)c(O)c(C(C)(C)C)c1` [BHT, butylated hydroxytoluene], the Antimicrobial activity entry in series [1] was “have antimicrobial activity”. Moreover, in series [2], the Effect on yeast result is reported as “does not affect yeast”. The “Activity Index” value was 1.42 in series [3] (Crude COFA, dose 0.0200 Wt %); 2.19 in series [3] (Crude COFA, dose 0.1998 Wt %); 2.11 in series [3] (Crude COFA, dose 0.2020 Wt %); 2.43 and 2.72 in series [3] (Crude COFA, dose 0.205 Wt %); 2.07 in series [3] (Crude COFA, dose 0.2097 Wt %); 17.63 in series [3] (Distilled COFA, dose 0.2 Wt %). Moreover, the “Activity Index” value is on record as 52.50 in series [3] (Distilled COFA, dose 1.1 Wt %) and 66.00 in series [3] (Distilled COFA, dose 2 Wt %). Moreover, the OSI is 1.85 h in series [3] (Crude COFA, dose 0.0200 Wt %); 2.85 h in series [3] (Crude COFA, dose 0.1998 Wt %); 3 h in series [3] (Crude COFA, dose 0.2020 Wt %); 11.3 h and 12.65 h in series [3] (Crude COFA, dose 0.205 Wt %); 2.95 h in series [3] (Crude COFA, dose 0.2097 Wt %); 2.35 h in series [3] (Distilled COFA, dose 0.2 Wt %). The OSI in series [3] (Distilled COFA, dose 1.1 Wt %) came out at 7 h; in series [3] (Distilled COFA, dose 2 Wt %), 8.8 h.
For `Cc1c(C)c2c(c(C)c1O)CC[C@@](C)(CCC[C@H](C)CCC[C@H](C)CCCC(C)C)O2` [a-Tocopherol], the “Activity Index” value in series [3] (Distilled COFA, dose 0.2 Wt %) is recorded as 2.63; in series [3] (Distilled COFA, dose 1.1 Wt %) it was 1.13; in series [3] (Distilled COFA, dose 2 Wt %), 1.13. Also, the OSI in series [3] (Distilled COFA, dose 0.2 Wt %) came to 0.35 h; in series [3] (Distilled COFA, dose 1.1 Wt %) it was 0.15 h; in series [3] (Distilled COFA, dose 2 Wt %), 0.15 h.
Turning to `CCOc1ccc2c(c1)C(C)=CC(C)(C)N2` [Ethoxyquin], in series [3] (Crude COFA, dose 0.2074 Wt %), the “Activity Index” value is recorded as 0.67 and the OSI was determined as 0.95 h.
Turning to `Cc1c(Cc2cc(C(C)(C)C)c(O)c(C(C)(C)C)c2)c(C)c(Cc2cc(C(C)(C)C)c(O)c(C(C)(C)C)c2)c(C)c1Cc1cc(C(C)(C)C)c(O)c(C(C)(C)C)c1` [Irganox 1330], in series [3] (Crude COFA, dose 0.2046 Wt %), the “Activity Index” value is 1.65 and the OSI stood at 2.35 h.
As for `CCCCCCCCCCCCCCCC(=O)OC[C@H](O)[C@H]1OC(=O)C(O)=C1O` [L-ascorbic acid 6-palmitate], the OSI was 10.05 h in series [3] (Crude COFA, dose 0.0100 Wt %); 4.1 h in series [3] (Crude COFA, dose 0.0200 Wt %); 25.4 h and 29.8 h in series [3] (Crude COFA, dose 0.2000 Wt %); 26.4 h in series [3] (Crude COFA, dose 0.2045 Wt %).
On to `c1ccc2c(c1)Nc1ccccc1S2` [Phenothiazine], for which, in series [3] (Crude COFA, dose 0.2034 Wt %), the “Activity Index” value was determined as 1.61 and the OSI was 2.3 h.
Take `CC(C)(C)c1cc(O)ccc1O` [TBHQ, tertiary-butylhydroquinone]: the “Activity Index” value in series [3] (Crude COFA, dose 0.0200 Wt %) is on record as 1.35; in series [3] (Crude COFA, dose 0.2000 Wt %), 2.81; in series [3] (Crude COFA, dose 0.2082 Wt %), 2.60. For the same compound, the OSI in series [3] (Crude COFA, dose 0.0200 Wt %) came out at 1.75 h; in series [3] (Crude COFA, dose 0.2000 Wt %), 3.65 h; in series [3] (Crude COFA, dose 0.2082 Wt %) it was 3.7 h.
`O=C(O)c1cc(O)c(O)c(O)c1` [Gallic acid]: in series [3] (Crude COFA, dose 0.193 Wt %), the “Activity Index” value is 1.70 and 1.25; the OSI was 7.9 h and 5.8 h.

Source of the values: patent publication US9249076B2, “Recyclable extractant compositions” (BUTAMAX ADVANCED BIOFUELS LLC, priority 2012, dated 2016).
